Source: PubChem BioAssay (NCI)
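Cells were grown in 96-well plates and exposed to each compound for 48 hours at five concentrations; endpoints were interpolated linearly between bracketing concentrations, or set to the highest concentration if not reached. TGI: concentration producing complete growth inhibition.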

Key:
Assay in all cases: NCI anticancer screen, dose series, 48 h
A498 renal = system: A498 renal
IGROV1 ovarian = system: IGROV1 ovarian
SK-MEL-5 melanoma = system: SK-MEL-5 melanoma
CCRF-CEM leukemia = system: CCRF-CEM leukemia
RXF 393 renal = system: RXF 393 renal
SN12C renal = system: SN12C renal
SNB-19 CNS = system: SNB-19 CNS
SR leukemia = system: SR leukemia
OVCAR-4 ovarian = system: OVCAR-4 ovarian
UACC-257 melanoma = system: UACC-257 melanoma
NCI-H23 lung = system: NCI-H23 lung
COLO 205 colon = system: COLO 205 colon
OVCAR-8 ovarian = system: OVCAR-8 ovarian
RPMI-8226 leukemia = system: RPMI-8226 leukemia
BT-549 breast = system: BT-549 breast
MCF7 breast = system: MCF7 breast
TK-10 renal = system: TK-10 renal
SNB-75 CNS = system: SNB-75 CNS
KM12 colon = system: KM12 colon
CAKI-1 renal = system: CAKI-1 renal
UACC-62 melanoma = system: UACC-62 melanoma
ACHN renal = system: ACHN renal
SK-OV-3 ovarian = system: SK-OV-3 ovarian
K-562 leukemia = system: K-562 leukemia
MDA-MB-231 breast = system: MDA-MB-231 breast
LOX IMVI melanoma = system: LOX IMVI melanoma
NCI-H226 lung = system: NCI-H226 lung
MALME-3M melanoma = system: MALME-3M melanoma
SF-268 CNS = system: SF-268 CNS
HL-60(TB) leukemia = system: HL-60(TB) leukemia
NCI-H522 lung = system: NCI-H522 lung
T-47D breast = system: T-47D breast
NCI-H460 lung = system: NCI-H460 lung
NCI/ADR-RES ovarian = system: NCI/ADR-RES ovarian
M14 melanoma = system: M14 melanoma
DU-145 prostate = system: DU-145 prostate
HT29 colon = system: HT29 colon
SW-620 colon = system: SW-620 colon
SF-295 CNS = system: SF-295 CNS
OVCAR-5 ovarian = system: OVCAR-5 ovarian
HCT-116 colon = system: HCT-116 colon
HCT-15 colon = system: HCT-15 colon
EKVX NSCLC = system: EKVX NSCLC
PC-3 prostate = system: PC-3 prostate
SF-539 CNS = system: SF-539 CNS
MOLT-4 leukemia = system: MOLT-4 leukemia
SK-MEL-2 melanoma = system: SK-MEL-2 melanoma
HOP-92 NSCLC = system: HOP-92 NSCLC
MDA-MB-435 = system: MDA-MB-435
U251 CNS = system: U251 CNS
HS 578T breast = system: HS 578T breast
786-0 renal = system: 786-0 renal
HOP-62 NSCLC = system: HOP-62 NSCLC
OVCAR-3 ovarian = system: OVCAR-3 ovarian
UO-31 renal = system: UO-31 renal
SK-MEL-28 melanoma = system: SK-MEL-28 melanoma
A549 NSCLC = system: A549 NSCLC

NNc1nncn1N
TGI (A498 renal): > 100 µM
TGI (IGROV1 ovarian): > 100 µM
TGI (SK-MEL-5 melanoma): > 100 µM
TGI (CCRF-CEM leukemia): 33.2 µM
TGI (RXF 393 renal): > 100 µM
TGI (SN12C renal): > 100 µM
TGI (SNB-19 CNS): > 100 µM
TGI (SR leukemia): > 100 µM
TGI (OVCAR-4 ovarian): > 96.7 µM
TGI (UACC-257 melanoma): > 100 µM
TGI (NCI-H23 lung): > 79.5 µM
TGI (COLO 205 colon): > 100 µM
TGI (OVCAR-8 ovarian): > 100 µM
TGI (RPMI-8226 leukemia): > 100 µM
TGI (BT-549 breast): > 100 µM
TGI (MCF7 breast): > 100 µM
TGI (TK-10 renal): > 100 µM
TGI (SNB-75 CNS): > 100 µM
TGI (KM12 colon): > 100 µM
TGI (CAKI-1 renal): > 100 µM
TGI (UACC-62 melanoma): > 100 µM
TGI (ACHN renal): > 100 µM
TGI (SK-OV-3 ovarian): > 100 µM
TGI (K-562 leukemia): > 100 µM
TGI (MDA-MB-231 breast): > 100 µM
TGI (LOX IMVI melanoma): > 100 µM
TGI (NCI-H226 lung): > 100 µM
TGI (MALME-3M melanoma): > 85.4 µM
TGI (SF-268 CNS): > 100 µM
TGI (HL-60(TB) leukemia): > 100 µM
TGI (NCI-H522 lung): > 100 µM
TGI (T-47D breast): > 100 µM
TGI (NCI-H460 lung): > 100 µM
TGI (NCI/ADR-RES ovarian): > 100 µM
TGI (M14 melanoma): > 100 µM
TGI (DU-145 prostate): > 67.3 µM
TGI (HT29 colon): > 100 µM
TGI (SW-620 colon): > 100 µM
TGI (SF-295 CNS): > 100 µM
TGI (OVCAR-5 ovarian): > 100 µM
TGI (HCT-116 colon): > 100 µM
TGI (HCT-15 colon): > 100 µM
TGI (EKVX NSCLC): > 100 µM
TGI (PC-3 prostate): > 100 µM
TGI (SF-539 CNS): > 100 µM
TGI (MOLT-4 leukemia): > 100 µM
TGI (SK-MEL-2 melanoma): > 100 µM
TGI (HOP-92 NSCLC): > 100 µM
TGI (MDA-MB-435): 36.3 µM
TGI (U251 CNS): > 100 µM
TGI (HS 578T breast): > 100 µM
TGI (786-0 renal): > 100 µM
TGI (HOP-62 NSCLC): > 100 µM
TGI (OVCAR-3 ovarian): > 100 µM
TGI (UO-31 renal): > 100 µM
TGI (SK-MEL-28 melanoma): > 100 µM
TGI (A549 NSCLC): > 100 µM
